Laboratory results from patent US8642770B2, “Indole derivative” (Takeda Pharmaceutical Company Limited, priority 2010, dated 2014).
Where a name gives a salt, the structure may show the parent alone.

| melting point | Structure (SMILES) |
| --- | --- |
| 278 °C | Cc1c(NC(=O)c2ccc(OC[C@@H]3CCCO3)cc2)ccc2c1cc(CN[C@H]1CC[C@](C)(O)CC1)n2C.Cl |
| 150 to 151 °C | Cn1c(CNCC(C)(C)C)cc2cc(NC(=O)c3ccc(OC[C@@H]4CCCO4)cc3)ccc21 (as salt: acetate) [Example 15, N-(2-{[(2,2-dimethylpropyl)amino]methyl}-1-methyl-1H-indol-5-yl)-4-[(2S)-tetrahydrofuran-2-ylmethoxy]benzamide acetate] |
| 166 to 167 °C | CC1(CNCc2cc3cc(NC(=O)c4ccc(OCC5CC5)cc4)ccc3[nH]2)COC1 [Example 1, 4-(cyclopropylmethoxy)-N-[2-({[(3-methyloxetan-3-yl)methyl]amino}methyl)-1H-indol-5-yl]benzamide] |
| 160 °C | O=C(Nc1ccc2[nH]c(CNCC3CCOCC3)cc2c1)c1ccc(OCC2CC2)cc1 [Example 3, 4-(cyclopropylmethoxy)-N-(2-{[(tetrahydro-2H-pyran-4-ylmethyl)amino]methyl}-1H-indol-5-yl)benzamide] |
| 154 to 155 °C | Cn1c(CNCC2(C)COC2)cc2cc(NC(=O)c3ccc(OCC4CC4)cc3)ccc21 [Example 4, 4-(cyclopropylmethoxy)-N-[1-methyl-2-({[(3-methyloxetan-3-yl)methyl]amino}methyl)-1H-indol-5-yl]benzamide] |
| 188 to 189 °C | Cn1c(CNCC(C)(C)O)cc2cc(NC(=O)c3ccc(OCC4CC4)cc3)ccc21 [Example 5, 4-(cyclopropylmethoxy)-N-(2-{[(2-hydroxy-2-methylpropyl)amino]methyl}-1-methyl-1H-indol-5-yl)benzamide] |
| 168 to 169 °C | Cn1c(CNCC(C)(C)S(C)(=O)=O)cc2cc(NC(=O)c3ccc(OCC4CC4)cc3)ccc21 [Example 7, 4-(cyclopropylmethoxy)-N-[1-methyl-2-({[2-methyl-2-(methylsulfonyl)propyl]amino}methyl)-1H-indol-5-yl]benzamide] |
| 196 to 197 °C | Cn1c(CN[C@H]2CC[C@H](O)CC2)cc2cc(NC(=O)c3ccc(OCC4CC4)cc3)ccc21 [Example 8, 4-(cyclopropylmethoxy)-N-(2-{[(trans-4-hydroxycyclohexyl)amino]methyl}-1-methyl-1H-indol-5-yl)benzamide] |
| 138 to 139 °C | Cn1c(CNC[C@H]2CCCO2)cc2cc(NC(=O)c3ccc(OCC4CC4)cc3)ccc21 [Example 10, 4-(cyclopropylmethoxy)-N-[1-methyl-2-({[(2R)-tetrahydrofuran-2-ylmethyl]amino}methyl)-1H-indol-5-yl]benzamide] |
| 139 °C | Cn1c(CNC[C@@H]2CCCO2)cc2cc(NC(=O)c3ccc(OCC4CC4)cc3)ccc21 [Example 11, 4-(cyclopropylmethoxy)-N-[1-methyl-2-({[(2S)-tetrahydrofuran-2-ylmethyl]amino}methyl)-1H-indol-5-yl]benzamide] |
| 132 to 133 °C | CC(C)CNCc1cc2cc(NC(=O)c3ccc(OC[C@@H]4CCCO4)cc3)ccc2n1C [Example 16, N-(1-methyl-2-{[(2-methylpropyl)amino]methyl}-1H-indol-5-yl)-4-[(2S)-tetrahydrofuran-2-ylmethoxy]benzamide] |
| 154 °C | Cn1c(CNC2CCC(C)(O)CC2)cc2cc(NC(=O)c3ccc(OC[C@@H]4CCCO4)cc3)ccc21 (stereo partly drawn) [Example 18, N-(2-{[(trans-4-hydroxy-4-methylcyclohexyl)amino]methyl}-1-methyl-1H-indol-5-yl)-4-[(2S)-tetrahydrofuran-2-ylmethoxy]benzamide] |
| 188 to 190 °C | Cn1c(CNCC(C)(C)O)cc2cc(NC(=O)c3ccc(OC[C@@H]4CCCO4)cc3)ccc21 [Example 19, N-(2-{[(2-hydroxy-2-methylpropyl)amino]methyl}-1-methyl-1H-indol-5-yl)-4-[(2S)-tetrahydrofuran-2-ylmethoxy]benzamide] |
